Measurements reported in PubChem BioAssay (NCI).
Several values for one entry are separate records, joined by “and”; a condition that tells them apart may be missing. Identical values can stand only once.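 Tested at 5 concentrations; 48 h exposure; 96-well plates; endpoints linearly interpolated, else capped at highest concentration. GI50: concentration for 50% inhibition of growth. TGI: total growth inhibition.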

test system: HT29 colon; experiment: inhibition of tumour cell growth, NCI panel, 48 h

Row | Compound | GI50 | TGI
1 | O=C1/C(=C/c2ccc(Br)cc2)COc2ccc(O)c(O)c21 | 2.3 µM | 5.79 µM
2 | N#Cc1c(NN)n(C2OC(CO)C(O)C2O)c2ncnc(N)c12 (centres undefined) | 0.0351 µM | 
3 | CCCCCCNC(=O)c1cc(NCc2cc(O)ccc2O)ccc1O | 21.6 µM | 44.3 µM
4 | N#CC(N)(C(=O)CCC(=O)Nc1cccc(Cl)c1)c1ccc(Cl)cc1 (centres undefined) |  | > 100 µM
5 | CC(CCC=O)CCOCc1ccccc1 (centres undefined) |  | > 100 µM
6 | O=C(Nc1nc2ccc(C(F)(F)F)cc2s1)c1cc(Cl)ccc1O | 2.1 µM | 74.7 µM
7 | S=C(Nc1ccccc1)N(/N=C/C=C/c1ccccc1)c1nnc(-c2ccccc2)c(-c2ccccc2)n1 |  | > 100 µM
8 | COc1ccc2c(c1)CCCC(Br)C2=O (centres undefined) |  | 20.2 µM
9 | COc1ccc(-n2cc(-c3cc(OC)c(OC)c(OC)c3)c(C(=O)C(F)(F)F)c2C)cc1 | 9.75 µM | > 100 µM
10 | COc1cc(C2CC(c3cccc(Br)c3)=NN2C(C)=O)cc(OC)c1OC (centres undefined) | 0.284 µM | 14.9 µM
11 | COc1cc(N(CCC#N)CCC#N)ccc1/C(N=Nc1ccc([N+](=O)[O-])cc1)=N/NC(=O)c1cc(Br)ccc1O | 43.5 µg/mL | 105 µg/mL
12 | CS(=O)(=O)Nc1ccc2c(c1)oc(=O)c1ccccc12 |  | > 100 µM

test system: LOX IMVI melanoma; experiment: inhibition of tumour cell growth, NCI panel, 48 h

Row | Compound | TGI | GI50
13 | CC(C)N(C(=O)C12C3C4C5(C#N)C3C1(C#N)C5C42I)C(C)C (centres undefined) | > 78.8 µM | 
14 | C=COCCCOc1ccccc1 | > 100 µM | 
15 | COc1ccc2c3c([nH]c2c1[N+](=O)[O-])C(C)=NCC3 | > 100 µM | 
16 | C=C(c1nc2ccc(Cl)cc2[nH]c1=O)C(O)c1ccc(C(O)C(=O)c2nc3ccc(Cl)cc3[nH]c2=O)cc1 (centres undefined) | > 100 µM | 
17 | Cc1cc([N+](=O)[O-])ccc1Nc1cccc(Cl)c1C | 33.9 µM | 
18 | Cc1nn(-c2ccccc2)c2nc(N3CCOCC3)nnc12 | > 100 µM | 
19 | CNC(=O)N(C)N=NCCCl | > 100 µM | 
20 | CCOc1ccccc1C=C1c2ccccc2C(=O)c2ccccc21 | > 100 µM | 
21 | O=C(CCn1[nH]c(=O)c(Cl)c(Cl)c1=O)NO | > 100 µM | 
22 | [N-]=[N+]=NC12CC3C4CC5CC3C(C1)C(C5)C4C2 | > 100 µM | 
23 | CN(C)c1nc2ccccc2[nH]1 | > 100 µM | 
24 | NNC(=S)N/N=C(\CC1OC(=O)c2ccccc21)c1ccccc1O (centres undefined) | 32.6 µM | 
25 | COC(=O)C1=C(O)c2cc(OC)c(OC)cc2C(c2ccc(OC)c(OC)c2)C1 (centres undefined) | > 100 µM | 
26 | O=C1c2cccc(NCCCNCCO)c2C(=O)c2cccc(NCCCNCCO)c21 | 4.79 µM and 6.13 µM | 
27 | COC1(OC)CC2C(=O)N(Cc3ccccc3)C1C(S(=O)(=O)c1ccccc1)C2S(=O)(=O)c1ccccc1 (centres undefined) | 21.8 µM | 
28 | COC(=O)C(=Cc1cc(OC)ccc1OC)C(=O)OC | 50.1 µM | 
29 | CC(C)c1ccccc1NC(=O)CCc1n[nH]c(=S)o1 | > 100 µM | 

Row | Compound | TGI | GI50
30 | CCCCC(C(=O)C(=O)NC1C2CC3CC(C2)CC1C3)C(=O)C(C)C (centres undefined) | > 100 µM | 
31 | COC(=O)c1cc2c(s1)C(=O)c1ccccc1-2 | > 100 µM | 
32 | Cn1c2c(c3ccccc31)C1CCCCCCC1C1C(=O)OC(=O)C21 (centres undefined) | 51.2 µM | 
33 | Cc1ccc(S(=O)(=O)N(CC(=O)O)c2ccccc2)cc1 | > 100 µM | 
34 | O=C(/C=C/c1ccccc1O)c1ccccc1O | > 100 µM | 
35 | CCn1c(-c2nonc2N)nc2c(C#CC(C)(C)O)nc(OC[C@H](N)c3ccccc3)cc21 | 7.89 µM | 3.84 µM
36 | O=C1/C(=C/c2ccc(Br)cc2)COc2ccc(O)c(O)c21 | 0.807 µM | 0.261 µM
37 | N#Cc1c(NN)n(C2OC(CO)C(O)C2O)c2ncnc(N)c12 (centres undefined) | 0.328 µM | 0.0513 µM
38 | CCCCCCNC(=O)c1cc(NCc2cc(O)ccc2O)ccc1O | 22.4 µM | 6.84 µM
39 | CC(CCC=O)CCOCc1ccccc1 (centres undefined) | > 91.2 µM | 
40 | O=C(Nc1nc2ccc(C(F)(F)F)cc2s1)c1cc(Cl)ccc1O | 15.8 µM | 1.33 µM
41 | S=C(Nc1ccccc1)N(/N=C/C=C/c1ccccc1)c1nnc(-c2ccccc2)c(-c2ccccc2)n1 | > 100 µM | 
42 | COc1ccc2c(c1)CCCC(Br)C2=O (centres undefined) | 3.04 µM | 
43 | COc1ccc(-n2cc(-c3cc(OC)c(OC)c(OC)c3)c(C(=O)C(F)(F)F)c2C)cc1 | > 100 µM | 47.4 µM
44 | COc1cc(C2CC(c3cccc(Br)c3)=NN2C(C)=O)cc(OC)c1OC (centres undefined) | 57.3 µM | 0.719 µM
45 | COc1cc(N(CCC#N)CCC#N)ccc1/C(N=Nc1ccc([N+](=O)[O-])cc1)=N/NC(=O)c1cc(Br)ccc1O | 110 µg/mL | 29 µg/mL
46 | CS(=O)(=O)Nc1ccc2c(c1)oc(=O)c1ccccc12 | > 100 µM | 

test system: LXFL 529 NSCLC; experiment: inhibition of tumour cell growth, NCI panel, 48 h

Row | Compound | TGI | GI50
47 | CC(C)N(C(=O)C12C3C4C5(C#N)C3C1(C#N)C5C42I)C(C)C (centres undefined) | > 100 µM | 
48 | C=COCCCOc1ccccc1 | > 100 µM | 
49 | COc1ccc2c3c([nH]c2c1[N+](=O)[O-])C(C)=NCC3 | > 100 µM | 
50 | C=C(c1nc2ccc(Cl)cc2[nH]c1=O)C(O)c1ccc(C(O)C(=O)c2nc3ccc(Cl)cc3[nH]c2=O)cc1 (centres undefined) | > 100 µM | 
51 | CC(C)(C)CC(C)(C)c1cc2c(O)c(c1)Cc1cc(C(C)(C)CC(C)(C)C)cc(c1O)Cc1cc(C(C)(C)CC(C)(C)C)cc(c1O)Cc1cc(C(C)(C)CC(C)(C)C)cc(c1O)C2 | > 100 µM | 
52 | Cc1cc([N+](=O)[O-])ccc1Nc1cccc(Cl)c1C | 28.3 µM | 
53 | CC1=C(C(=O)Nc2ccccc2)C(c2ccccc2)C(C(=O)Nc2ccccc2)=C(C)N1 | > 100 µM | 
54 | Cc1nn(-c2ccccc2)c2nc(N3CCOCC3)nnc12 | > 100 µM | 
55 | CNC(=O)N(C)N=NCCCl | > 100 µM | 
56 | CCOc1ccccc1C=C1c2ccccc2C(=O)c2ccccc21 | > 100 µM | 
57 | O=C(CCn1[nH]c(=O)c(Cl)c(Cl)c1=O)NO | > 100 µM | 
58 | [N-]=[N+]=NC12CC3C4CC5CC3C(C1)C(C5)C4C2 | > 100 µM | 
59 | CN(C)c1nc2ccccc2[nH]1 | > 100 µM | 
60 | NNC(=S)N/N=C(\CC1OC(=O)c2ccccc21)c1ccccc1O (centres undefined) | > 100 µM | 
61 | COC(=O)C1=C(O)c2cc(OC)c(OC)cc2C(c2ccc(OC)c(OC)c2)C1 (centres undefined) | > 100 µM | 
62 | O=C1c2cccc(NCCCNCCO)c2C(=O)c2cccc(NCCCNCCO)c21 | 2.95 µM and 10.1 µM | 0.844 µM and 2.22 µM
63 | COC1(OC)CC2C(=O)N(Cc3ccccc3)C1C(S(=O)(=O)c1ccccc1)C2S(=O)(=O)c1ccccc1 (centres undefined) | 12.1 µM | 
64 | Cc1cc(CC(O)c2ccc(Cl)c(Cl)c2)nc(=O)[nH]1 (centres undefined) | 59.2 µM | 
65 | COC(=O)C(=Cc1cc(OC)ccc1OC)C(=O)OC | 36 µM | 
66 | CC1=NNC(=O)C2CCC(=O)N12 (centres undefined) | > 100 µM | 
67 | CC(C)c1ccccc1NC(=O)CCc1n[nH]c(=S)o1 | > 100 µM | 
68 | CCCCC(C(=O)C(=O)NC1C2CC3CC(C2)CC1C3)C(=O)C(C)C (centres undefined) | > 100 µM | 
69 | COC(=O)c1cc2c(s1)C(=O)c1ccccc1-2 | > 100 µM | 
70 | Cn1c2c(c3ccccc31)C1CCCCCCC1C1C(=O)OC(=O)C21 (centres undefined) | > 100 µM | 
71 | Cc1ccc(S(=O)(=O)N(CC(=O)O)c2ccccc2)cc1 | > 100 µM | 
72 | COc1ccc(C(=O)C(c2ccc(OC)cc2)C2(O)C(=O)Nc3ccc([N+](=O)[O-])cc32)cc1 (centres undefined) | > 100 µM | 
73 | N#CC(N)(C(=O)CCC(=O)Nc1cccc(Cl)c1)c1ccc(Cl)cc1 (centres undefined) | > 100 µM | 
74 | CC(CCC=O)CCOCc1ccccc1 (centres undefined) | > 100 µM | 

test system: NCI-H23 lung; experiment: inhibition of tumour cell growth, NCI panel, 48 h

Row | Compound | TGI
75 | CC(C)N(C(=O)C12C3C4C5(C#N)C3C1(C#N)C5C42I)C(C)C (centres undefined) | > 100 µM
76 | C=COCCCOc1ccccc1 | > 100 µM
77 | C=C(c1nc2ccc(Cl)cc2[nH]c1=O)C(O)c1ccc(C(O)C(=O)c2nc3ccc(Cl)cc3[nH]c2=O)cc1 (centres undefined) | > 100 µM
78 | CC(C)(C)CC(C)(C)c1cc2c(O)c(c1)Cc1cc(C(C)(C)CC(C)(C)C)cc(c1O)Cc1cc(C(C)(C)CC(C)(C)C)cc(c1O)Cc1cc(C(C)(C)CC(C)(C)C)cc(c1O)C2 | > 100 µM
79 | Cc1cc([N+](=O)[O-])ccc1Nc1cccc(Cl)c1C | 33.3 µM
80 | CC1=C(C(=O)Nc2ccccc2)C(c2ccccc2)C(C(=O)Nc2ccccc2)=C(C)N1 | > 100 µM
81 | Cc1nn(-c2ccccc2)c2nc(N3CCOCC3)nnc12 | > 100 µM
82 | CNC(=O)N(C)N=NCCCl | > 100 µM
83 | CCOc1ccccc1C=C1c2ccccc2C(=O)c2ccccc21 | > 100 µM
84 | O=C(CCn1[nH]c(=O)c(Cl)c(Cl)c1=O)NO | > 100 µM
85 | [N-]=[N+]=NC12CC3C4CC5CC3C(C1)C(C5)C4C2 | > 100 µM
86 | CN(C)c1nc2ccccc2[nH]1 | > 100 µM
87 | NNC(=S)N/N=C(\CC1OC(=O)c2ccccc21)c1ccccc1O (centres undefined) | > 100 µM
88 | COC(=O)C1=C(O)c2cc(OC)c(OC)cc2C(c2ccc(OC)c(OC)c2)C1 (centres undefined) | > 100 µM
89 | O=C1c2cccc(NCCCNCCO)c2C(=O)c2cccc(NCCCNCCO)c21 | 6.08 µM and 4.38 µM
